This assay deals with PMA-differentiated THP-1 cells. As to the kind of experiment: IL-1β production in PMA-differentiated THP-1 cells stimulated with gramicidin (hTHP-1 assay containing 2% fetal bovine serum; Procedures 1 and 2). The class given is cell-based, human. Particulars: 2% fetal bovine serum. A digest of the protocol: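 Compound titrations in 0.37% final DMSO were added to THP-1 cells that had been plated after 16-18 h PMA treatment, 50,000 per well in 2% FBS. One hour later the cells received gramicidin (5 μM, 2 h) and were centrifuged. HTRF detected IL-1β in the collected supernatants.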

The mark [1] stands for this setting: Homo sapiens, THP-1, Table B3, hTHP-1 assay, class symbols, read-out: IC50.
Where [2] appears, read: Homo sapiens, THP-1, Table B2, class symbols, read-out: hTHP-1 IC50.
Setting [3] is: Table B3, hTHP-1 assay, class symbols, read-out: IC50.
Where [4] appears, read: Table B1, class symbols, read-out: Average IC50 of compounds in hTHP-1 assay: hTHP-1 IC50.
Setting [5] is: Table B2, class symbols, read-out: hTHP-1 IC50.

A word on the pIC50: it is −log10 of the IC50, conventionally taken in molar units.

pIC50: −log10 of the molar value. Where two headings read alike, the source gives them in different places. A value given as a limit tells only on which side of the number the result lay.

As for `CC1(C)CCc2c1nc1c(c2NC(=O)N=S(N)(=O)c2sc([C@](C)(O)CO)nc2CO)CCC1` (stereo partly drawn) [Example 600, 2-((R)-1,2-dihydroxypropan-2-yl)-N′-((3,3-dimethyl-1,2,3,5,6,7-hexahydrodicyclopenta[b,e]pyridin-8-yl)carbamoyl)-4-(hydroxymethyl)thiazole-5-sulfonimidamide], the pIC50 under setting [1] is 6.00 to 6.70.
Regarding `CC(C)n1cc(CO)c(S(N)(=O)=NC(=O)Nc2c3c(nc4c2CCC4(C)C)CCC3)n1` (stereo not drawn) [Compound 682, N′-((3,3-dimethyl-1,2,3,5,6,7-hexahydrodicyclopenta [b,e]pyridin-8-yl)carbamoyl)-4-(hydroxymethyl)-1-isopropyl-1H-pyrazole-3-sulfonimidamide], the pIC50 under setting [2] was 5.30 to 6.00.
Still for that read-out and setting: under `CC(C)(O)c1sc(S(N)(=O)=NC(=O)Nc2c3c(nc4c2CCC4(C)C)CCC3)nc1CO` (stereo not drawn) [Compound 642, N′-((3,3-dimethyl-1,2,3,5,6,7-hexahydrodicyclopenta[b,e]pyridin-8-yl)carbamoyl)-4-(hydroxymethyl)-5-(2-hydroxypropan-2-yl)thiazole-2-sulfonimidamide] stands 6.70 to 7.40; under `CC(C)n1cc(S(N)(=O)=NC(=O)Nc2c3c(nc4c2CCC4(C)C)CCC3)c(CO)n1` (single isomer, unassigned) [Compound 653a, (R) or (S)-N′-((3,3-dimethyl-1,2,3,5,6,7-hexahydrodicyclopenta [b,e]pyridin-8-yl)carbamoyl)-3-(hydroxymethyl)-1-isopropyl-1H-pyrazole-4-sulfonimidamide], 4.52 to 5.30.
With `CCc1c(CC(F)(F)F)nc2c(c1NC(=O)N=S(N)(=O)c1sc(C(C)(C)O)cc1F)CCC2` (single isomer, unassigned) [Example 640, (S) or (R)-N′-((3-ethyl-2-(2,2,2-trifluoroethyl)-6,7-dihydro-5H-cyclopenta[b]pyridin-4-yl)carbamoyl)-3-fluoro-5-(2-hydroxypropan-2-yl) thiophene-2-sulfonimidamide], under setting [3], the pIC50 was 4.52 to 5.30.
For the molecule `CC(C)c1nc2c(cc1NC(=O)N=S(N)(=O)c1cnc(C(C)(C)O)s1)CCC2` (stereo not drawn) [Compound 601, 2-(2-Hydroxypropan-2-yl)-N′-((2-isopropyl-6,7-dihydro-5H-cyclopenta[b]pyridin-3-yl)carbamoyl)thiazole-5-sulfonimidamide], the negative logarithm of the IC50 (pIC50) under setting [2] was 4.52 to 5.30.
Same read-out and setting: then `CC(C)(O)c1cccc(S(N)(=O)=NC(=O)Nc2c3c(nc4c2CCC4)CCC3)c1` (stereo not drawn) [Compound 625, N′-((1,2,3,5,6,7-hexahydrodicyclopenta[b,e]pyridin-8-yl)carbamoyl)-3-(2-hydroxypropan-2-yl)benzenesulfonimidamide], with 4.52 to 5.30.
In the case of `CCC1CCc2c1nc1c(c2NC(=O)N=S(N)(=O)c2sc(C(C)(C)O)cc2F)CCC1` (single isomer, unassigned) [Compound 671a, (S, S) or (S, R) or (R, S) or (R, R)-N′-((3-ethyl-1,2,3,5,6,7-hexahydrodicyclopenta [b,e]pyridin-8-yl)carbamoyl)-3-fluoro-5-(2-hydroxypropan-2-yl) thiophene-2-sulfonimidamide], where the note is “Homo sapiens, THP-1, Table B2, numeric bounds, read-out: hTHP-1 IC50”, the pIC50 is less than 4.52.
As to `Cc1c(C2CC2)nc2c(c1NC(=O)N=S(N)(=O)c1cc(C(C)(C)O)cs1)CCC2` (single isomer, unassigned) [Compound 175b, (S) or (R)-N′-((2-cyclopropyl-3-methyl-6,7-dihydro-5H-cyclopenta[b]pyridin-4-yl)carbamoyl)-4-(2-hydroxy-propan-2-yl)thiophene-2-sulfonimidamide], the pIC50 under setting [4] was 6.00 to 6.70.
As to `CN(C)Cc1ccc(S(=O)(=NC(=O)Nc2c3c(nc4c2CCC4)CCC3)NC(=O)OC(C)(C)C)cc1` (stereo not drawn) [Compound 113, tert-butyl (4-((dimethylamino)methyl)-N-((1,2,3,5,6,7-hexahydrodicyclopenta[b,e]pyridin-8-yl)carbamoyl)phenylsulfonimidoyl)carbamate], where the note is “Homo sapiens, THP-1, Table B1, numeric bounds, read-out: Average IC50 of compounds in hTHP-1 assay: hTHP-1 IC50”, the pIC50 was less than 4.52.
For the molecule `C[C@@H]1CCc2c1nc1c(c2NC(=O)N=S(N)(=O)c2nn(C(F)F)cc2F)CCC1` (stereo partly drawn) [Example 568, 1-(Difluoromethyl)-4-fluoro-N′-(((R)-3-methyl-1,2,3,5,6,7-hexahydrodicyclopenta[b,e]pyridin-8-yl)carbamoyl)-1H-pyrazole-3-sulfonimidamide], the pIC50 under setting [1] is 6.70 to 7.40.
As for `CC1CCc2c1nc1c(c2NC(=O)N=S(N)(=O)c2cn(C(C)C)cn2)CCC1` (single isomer, unassigned) [Compound 660b, (S, S) or (R, S) or (S, R) or (R, R)-1-Isopropyl-N′-((3-methyl-1,2,3,5,6,7-hexahydrodicyclopenta [b,e]pyridin-8-yl)carbamoyl)-1H-imidazole-4-sulfonimidamide], the pIC50 (Table B2, numeric bounds, read-out: hTHP-1 IC50) was less than 4.52.
`CC(C)(O)c1cc(F)c(S(N)(=O)=NC(=O)Nc2c3c(nc(C4CC4)c2C2CC2)CCC3)s1` (single isomer, unassigned) [Example 697, (R) or (S)-N′-((2,3-dicyclopropyl-6,7-dihydro-5H-cyclopenta[b]pyridin-4-yl)carbamoyl)-3-fluoro-5-(2-hydroxypropan-2-yl) thiophene-2-sulfonimidamide]: the pIC50 under setting [3] was 6.70 to 7.40.
Regarding `CC(C)(O)c1cc(S(N)(=O)=NC(=O)Nc2c3c(nc4c2CCC4)CCC3)nn1-c1ccccc1` (stereo not drawn) [Compound 159, N-((1,2,3,5,6,7-hexahydrodicyclopenta[b,e]pyridin-8-yl)carbamoyl)-5-(2-hydroxypropan-2-yl)-1-phenyl-1H-pyrazole-3-sulfonimidamide], the pIC50 (Homo sapiens, THP-1, Table B1, class symbols, read-out: Average IC50 of compounds in hTHP-1 assay: hTHP-1 IC50) was 5.30 to 6.00.
Regarding `Cc1c(C(F)(F)F)nc2c(c1NC(=O)N=S(N)(=O)c1cnc(C(C)(C)O)s1)CCC2C` (single isomer, unassigned) [Example 703, (R/S, S) or (R/S, R)-N′-((3,7-dimethyl-2-(trifluoromethyl)-6,7-dihydro-5H-cyclopenta[b]pyridin-4-yl)carbamoyl)-2-(2-hydroxypropan-2-yl)thiazole-5-sulfonimidamide], the negative logarithm of the IC50 (pIC50) under setting [3] is 5.30 to 6.00.
Regarding `Cc1nc(C)c(C)c(NC(=O)N=S(N)(=O)c2cnc(C(C)(C)O)s2)c1C` (single isomer, unassigned) [Compound 133b, (S) or (R)-2-(2-hydroxypropan-2-yl)-N′-((2,3,5,6-tetramethylpyridin-4-yl)carbamoyl)thiazole-5-sulfonimidamide], the pIC50 (Table B1, numeric bounds, read-out: Average IC50 of compounds in hTHP-1 assay: hTHP-1 IC50) is less than 4.52.
Take `NS(=O)(=NC(=O)Nc1c2c(nc(C3CC3)c1C1CC1)CCC2)c1ccn(C(F)F)n1` (stereo not drawn) [Example 571, N′-((2,3-dicyclopropyl-6,7-dihydro-5H-cyclopenta[b]pyridin-4-yl)calbamoyl)-1-(difluoromethyl)-1H-pymzole-3-sulfonimidamide]: under setting [1], the pIC50 was 5.30 to 6.00.
Same read-out and setting: under `Cc1c(C(F)(F)F)nc2c(c1NC(=O)N=S(N)(=O)c1cc(CO)n(C(C)C)n1)CCC2` (stereo not drawn) [Example 585, 5-(Hydroxymethyl)-1-isopropyl-N′-((3-methyl-2-(trifluoromethyl)-6,7-dihydro-5H-cyclopenta[b]pyridin-4-yl)carbamoyl)-1H-pyrazole-3-sulfonimidamide] stands 5.30 to 6.00.
On to `Cc1c(C(F)(F)F)nc2c(c1NC(=O)N=S(N)(=O)c1cnc(C(C)(O)CO)s1)CCC2` (single isomer, unassigned) [Compound 605c], for which the negative logarithm of the IC50 (pIC50) under setting [5] was 6.00 to 6.70.
As for `CC(C)c1ncc(F)c(C(C)C)c1NC(=O)N=S(N)(=O)c1nc(C(C)(C)O)cs1` (single isomer, unassigned) [Compound 163a, (R) or (S)-N′-((5-fluoro-2,4-diisopropylpyridin-3-yl)carbamoyl)-4-(2-hydroxypropan-2-yl)thiazole-2-sulfonimidamide], the pIC50 under setting [4] is 6.70 to 7.40.
For the molecule `NS(=O)(=NC(=O)Nc1c2c(nc(C(F)(F)F)c1-c1ccccc1)CCC2)c1nn(C(F)F)cc1F` (stereo not drawn) [Example 740, 1-(Difluoromethyl)-4-fluoro-N′-((3-phenyl-2-(trifluoromethyl)-6,7-dihydro-5H-cyclopenta[b]pyridin-4-yl)carbamoyl)-1H-pyrazole-3-sulfonimidamide], for the setting “Homo sapiens, THP-1, Table B4, class symbols, read-out: hTHP-1 IC50”, the pIC50 was 6.70 to 7.40.
On to `COCc1nc(C(C)(C)O)sc1S(N)(=O)=NC(=O)Nc1c2c(nc3c1CCC3(C)C)CCC2` (single isomer, unassigned) [Compound 170b, (S) or (R)-N′-((3,3-dimethyl-1,2,3,5,6,7-hexahydrodicyclopenta [b,e]pyridin-8-yl)carbamoyl)-2-(2-hydroxypropan-2-yl)-4-(methoxymethyl) thiazole-5-sulfonimidamide], for which the pIC50 under setting [5] is 4.52 to 5.30.
With `Cc1c(CC2CC2)nc2c(c1NC(=O)N=S(N)(=O)c1cc(C(C)(C)O)cs1)CCC2` (single isomer, unassigned) [Compound 665b, (R) or (S)-N′-((2-(cyclopropylmethyl)-3-methyl-6,7-dihydro-5H-cyclopenta[b]pyridin-4-yl)carbamoyl)-4-(2-hydroxypropan-2-yl)thiophene-2-sulfonimidamide], the negative logarithm of the IC50 (pIC50) under setting [2] was 5.30 to 6.00.
Regarding `Cc1nc2c(c(NC(=O)N=S(N)(=O)c3cc(C(C)(C)O)cs3)c1C(C)C)CCC2` (stereo not drawn) [Compound 622, 4-(2-Hydroxypropan-2-yl)-N′-((3-isopropyl-2-methyl-6,7-dihydro-5H-cyclopenta[b]pyridin-4-yl)carbamoyl)thiophene-2-sulfonimidamide], the pIC50 under setting [2] was 4.52 to 5.30.

For the origin of these results see patent US20230031406A1, “COMPOUNDS AND COMPOSITIONS FOR TREATING CONDITIONS ASSOCIATED WITH NLRP ACTIVITY” (Novartis AG, priority 2018, published 2023).
